Data taken from PubChem BioAssay (NCI).
Where “and” joins values, the source holds several entries; their conditions need not be identical. Identical values can stand only once.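 Values below derive from 48-hour exposures of cells grown in 96-well plates, with endpoints linearly interpolated between the two concentrations bracketing the appropriate inhibition level. Here, GI50 denotes the concentration required for 50% inhibition of growth. TGI: total growth inhibition.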

Columns and labels:
Test in all cases: DTP human tumour cell line panel, 48 h
IGROV1 ovarian = test system: IGROV1 ovarian
A549 NSCLC = test system: A549 NSCLC
SN12C renal = test system: SN12C renal
U251 CNS = test system: U251 CNS
M19-MEL melanoma = test system: M19-MEL melanoma
EKVX NSCLC = test system: EKVX NSCLC
HS 578T breast = test system: HS 578T breast
OVCAR-8 ovarian = test system: OVCAR-8 ovarian
LXFL 529 NSCLC = test system: LXFL 529 NSCLC
NCI-H522 lung = test system: NCI-H522 lung

Row | SMILES | GI50 (IGROV1 ovarian) [nM] | TGI (IGROV1 ovarian) | GI50 (A549 NSCLC) [nM] | TGI (A549 NSCLC) | GI50 (SN12C renal) [nM] | TGI (SN12C renal) | TGI (U251 CNS) | TGI (M19-MEL melanoma) | GI50 (EKVX NSCLC) [nM] | TGI (EKVX NSCLC) | GI50 (HS 578T breast) [nM] | TGI (HS 578T breast) | GI50 (OVCAR-8 ovarian) [nM] | TGI (OVCAR-8 ovarian) | TGI (LXFL 529 NSCLC) | GI50 (NCI-H522 lung) | TGI (NCI-H522 lung) | GI50 (LXFL 529 NSCLC)
1 | CC1CC(C)CC(C)C(O)/C(C#N)=C/C=C/CC(C2CCCC2C(=O)O)OC(=O)CC(O)C(C)C1 (stereo not drawn) | 23.1 | 128 nM and 41.2 nM | 68.1 | 496 nM and 919 nM | 34.2 | 342 nM and 727 nM | 54.7 nM and 44.9 nM | 53.2 nM | 51.8 | 384 nM and 465 nM | 39.5 | 223 nM and 67.3 nM | 49.5 | 472 nM and 344 nM | 39.7 nM | 2.66 nM | 13.7 nM and < 11.9 nM | –
2 | C=C(c1ccccc1)C1(O)CCCCC1N (stereo not drawn) | – | > 100000 nM | – | > 100000 nM | – | > 100000 nM | > 100000 nM | > 100000 nM | – | > 100000 nM | – | – | – | > 100000 nM | > 100000 nM | – | > 100000 nM | –
3 | Cc1ccc(S(=O)(=O)SC/C=C\CSS(=O)(=O)c2ccc(C)cc2)cc1 | – | > 100000 nM and 79200 nM | – | > 100000 nM | – | 88500 nM and 37100 nM | 66300 nM and 34700 nM | > 100000 nM and 95100 nM | – | > 100000 nM | – | > 100000 nM | – | 46800 nM and 33900 nM | > 67800 nM and 33900 nM | 3790 nM and 17100 nM | 15600 nM and 30800 nM | 8610 nM and 17500 nM
